10 molecules from ChEMBL document CHEMBL4251596, “Hetero-Diels-Alder reactions of novel 3-triazolyl-nitrosoalkenes as an approach to functionalized 1,2,3-triazoles with antibacterial profile” (Eur J Med Chem, 2018) can be followed below.

Molecules are shown by their SMILES. In brackets after ≈: the same amount, converted by molar mass. Activity calls are given as the source filed them. The calls are words filed in the database; no cut-off is given here.

The test system of series [1] is Staphylococcus epidermidis. In words: Antibacterial activity against Staphylococcus epidermidis ATCC 12228 assessed as diameter of inhibition at 30 ug/disk after 24 hrs by disk diffusion assay (reference value: 0 mm). Format: functional. The conditions noted are these: ATCC 12228, 24 h, read-out: DIZ. In general terms: Agar diffusion results depend on both activity and mobility in agar.

A further series concerns Serratia marcescens. In words: Antibacterial activity against Serratia marcescens ATCC 14756 assessed as diameter of inhibition at 30 ug/disk after 24 hrs by disk diffusion assay (reference value: 0 mm). The series is classed as functional. The conditions noted are these: ATCC 14756, 24 h, read-out: DIZ.
For the next series, the system named is Enterobacter cloacae. In words: Antibacterial activity against Enterobacter cloacae ATCC 23355 assessed as diameter of inhibition at 30 ug/disk after 24 hrs by disk diffusion assay (reference value: 0 mm). The conditions noted are these: ATCC 23355, 24 h, read-out: DIZ. The series is classed as functional.
A further series deals with Enterococcus faecalis. In words: Antibacterial activity against Enterococcus faecalis ATCC 29212 assessed as diameter of inhibition at 30 ug/disk after 24 hrs by disk diffusion assay (reference value: 0 mm). The series is classed as functional. The conditions noted are these: ATCC 29212, 24 h, read-out: DIZ.
Another series has as its system Pseudomonas aeruginosa. In words: Antibacterial activity against Pseudomonas aeruginosa ATCC 27853 assessed as diameter of inhibition at 30 ug/disk after 24 hrs by disk diffusion assay (reference value: 0 mm). Particulars: ATCC 27853, 24 h, read-out: DIZ. The series is classed as functional.
The next series has as its system Klebsiella pneumoniae. In words: Antibacterial activity against Klebsiella pneumoniae ATCC 4352 assessed as diameter of inhibition at 30 ug/disk after 24 hrs by disk diffusion assay (reference value: 0 mm). The series is classed as functional. The conditions noted are these: ATCC 4352, 24 h, read-out: DIZ.
For series [2], the system named is Staphylococcus aureus. In words: Antibacterial activity against Staphylococcus aureus ATCC 25923 assessed as diameter of inhibition at 30 ug/disk after 24 hrs by disk diffusion assay (reference value: 0 mm). The series is classed as functional. The conditions noted are these: ATCC 25923, 24 h, read-out: DIZ.
Another series has as its system Proteus mirabilis. In words: Antibacterial activity against Proteus mirabilis ATCC 15290 assessed as diameter of inhibition at 30 ug/disk after 24 hrs by disk diffusion assay (reference value: 0 mm). The series is classed as functional. The conditions noted are these: ATCC 15290, 24 h, read-out: DIZ.
The test system of series [3] is Staphylococcus aureus. In words: Antibacterial activity against methicillin-resistant Staphylococcus aureus BMB9393 assessed as diameter of inhibition at 30 ug/disk after 24 hrs by disk diffusion assay (reference value: 0 mm). Format: functional. Particulars: BMB9393, 24 h, read-out: DIZ.
In series [4] the test system is Staphylococcus simulans. In words: Antibacterial activity against Staphylococcus simulans ATCC 27851 assessed as diameter of inhibition at 30 ug/disk after 24 hrs by disk diffusion assay (reference value: 0 mm). Particulars: ATCC 27851, 24 h, read-out: DIZ. Format: functional.
Series [5] deals with Staphylococcus aureus. In words: Antibacterial activity against Staphylococcus aureus ATCC 25923 after 24 hrs by microdilution assay. The series is classed as functional. The conditions noted are these: ATCC 25923, 24 h. (Broth dilution looks for growth in wells or tubes with falling amounts of substance.)
The subject of series [6] is Staphylococcus epidermidis. In words: Antibacterial activity against Staphylococcus epidermidis ATCC 12228 after 24 hrs by microdilution assay. Format: functional. The conditions noted are these: ATCC 12228, 24 h.
Series [7] concerns Staphylococcus aureus. In words: Antibacterial activity against methicillin-resistant Staphylococcus aureus BMB9393 after 24 hrs by microdilution assay. The series is classed as functional. Particulars: BMB9393, 24 h.
The nature of series [8]: Selectivity index, ratio of MIC for antibacterial activity against methicillin-resistant Staphylococcus aureus BMB9393 to MIC for antibacterial activity against Staphylococcus simulans ATCC 27851. The series is classed as functional.
Series [9] has as its system Staphylococcus aureus. In words: Antibacterial activity against methicillin-resistant Staphylococcus aureus BMB9393 at 1/2 and 1/4 MIC after 24 hrs. The series is classed as functional, organism-based.
Series [10] is described as follows: Selectivity index, ratio of MIC for antibacterial activity against methicillin-resistant Staphylococcus aureus BMB9393 to MIC for antibacterial activity against Staphylococcus epidermidis ATCC 12228. The series is classed as functional.
In series [11] the test system is Staphylococcus aureus. In words: Antibiofilm activity against methicillin-resistant Staphylococcus aureus BMB9393 at 1/2 and 1/4 MIC after 24 hrs by crystal violet based assay. The series is classed as functional.
Series [12] relates to Staphylococcus aureus. In words: Selectivity index, ratio of MIC for antibacterial activity against methicillin-resistant Staphylococcus aureus BMB9393 to MIC for antibacterial activity against Staphylococcus aureus ATCC 25923. The series is classed as functional.
A short description of series [13]: (§1) Hemolytic activity in human erythrocytes at 10 to 200 ug/ml after 3 hrs relative to control. Particulars: erythrocytes, read-out: Activity. Format: ADME, cell-based, Erythrocyte.
For series [14], the system named is Staphylococcus simulans. In words: Antibacterial activity against Staphylococcus simulans ATCC 27851 after 24 hrs by microdilution assay. The series is classed as functional. Particulars: ATCC 27851, 24 h.
The next series deals with Erythrocyte. The description is as §1. The series is classed as ADME, cell-based. Particulars: erythrocyte, 3 h.

As for `COc1ccc(-n2cc(/C(Cc3ccc[nH]3)=N/O)nn2)cc1`, the zone of inhibition at 30 µg/disc (in series [1]; in the series on Serratia marcescens; with Enterobacter cloacae; in the series with Enterococcus faecalis; in the series with Pseudomonas aeruginosa; in the series with Klebsiella pneumoniae) was 0 mm each time. In addition, the zone of inhibition at 30 µg/disc in the series on Staphylococcus aureus [2], in the series with Proteus mirabilis, in the series on Staphylococcus aureus [3] and in the series with Staphylococcus simulans [4] was 0 mm throughout.
For orientation: MIC means the least concentration at which growth counts as inhibited. A higher MIC goes with a need for much substance. For `CCC(CC)(c1ccc[nH]1)c1ccc(C/C(=N\O)c2cn(-c3ccc(Cl)cc3)nn2)[nH]1`, the MIC turned out to be 32 µg/mL (≈ 73.2 µM) against Staphylococcus aureus [5], 32 µg/mL (≈ 73.2 µM) in [6], 256 µg/mL (≈ 586 µM) against Staphylococcus aureus [7] and 32 µg/mL (≈ 73.2 µM) with Staphylococcus simulans [14]. In addition, the zone of inhibition at 30 µg/disc was found to be 12 mm in [1]; 0 mm with Serratia marcescens; 0 mm in the series on Enterobacter cloacae; 0 mm in the series on Enterococcus faecalis; 0 mm with Pseudomonas aeruginosa; 0 mm in the series on Klebsiella pneumoniae. For the same molecule, the zone of inhibition at 30 µg/disc with Staphylococcus aureus [2] stood at 11 mm; with Proteus mirabilis it was 0 mm; with Staphylococcus aureus [3], 8 mm; in the series on Staphylococcus simulans [4], 10 mm. For the same molecule, the “Selectivity Index” value (in [8]; in series [10]; in the series with Staphylococcus aureus [12]) was 8 in each case. Moreover, the outcome in the series with Staphylococcus aureus [9] was Active. For the same molecule, the Activity in the series with Staphylococcus aureus [11] is 73 - 76%. Further, in series [13], the hemolysis at 3 h was less than 10%.
In the case of `CCC(CC)(c1ccc(C/C(=N\O)c2cn(-c3ccc(Cl)cc3)nn2)[nH]1)c1ccc(C/C(=N\O)c2cn(-c3ccc(Cl)cc3)nn2)[nH]1`, the zone of inhibition at 30 µg/disc (in [1]; in the series with Serratia marcescens; in the series with Enterobacter cloacae; in the series on Enterococcus faecalis; in the series with Pseudomonas aeruginosa; in the series on Klebsiella pneumoniae) was 0 mm in each case. In addition, the zone of inhibition at 30 µg/disc in the series with Staphylococcus aureus [2], with Proteus mirabilis, in the series with Staphylococcus aureus [3] and with Staphylococcus simulans [4] was 0 mm throughout.
As to `CN[C@H](CC(C)C)C(=O)N[C@H]1C(=O)N[C@@H](CC(N)=O)C(=O)N[C@H]2C(=O)N[C@H]3C(=O)N[C@H](C(=O)N[C@H](C(=O)O)c4cc(O)cc(O)c4-c4cc3ccc4O)[C@H](O)c3ccc(c(Cl)c3)Oc3cc2cc(c3O[C@@H]2O[C@H](CO)[C@@H](O)[C@H](O)[C@H]2O[C@H]2C[C@](C)(N)[C@H](O)[C@H](C)O2)Oc2ccc(cc2Cl)[C@H]1O` [VANCOMYCIN], the zone of inhibition at 30 µg/disc turned out to be 17 mm in [1]; 18 mm in the series with Enterococcus faecalis; 15 mm in the series with Staphylococcus aureus [2]; 13 mm in the series with Staphylococcus aureus [3]; 20 mm in the series on Staphylococcus simulans [4]. In addition, the result in the series on Staphylococcus aureus [11] was Active. Also, the Activity entry in the series on Erythrocyte is “Non-Toxic”. For the same molecule, the lowest concentration to inhibit growth against Staphylococcus simulans [14] (MIC) was 1 µg/mL (≈ 0.69 µM).
For the molecule `O=[N+]([O-])c1ccc(-n2cc(/C(Cc3ccc[nH]3)=N/O)nn2)cc1`, the zone of inhibition at 30 µg/disc (in series [1]; in the series with Serratia marcescens; with Enterobacter cloacae; in the series on Enterococcus faecalis; with Pseudomonas aeruginosa; in the series with Klebsiella pneumoniae) was 0 mm in each case. For the same molecule, the zone of inhibition at 30 µg/disc in the series with Staphylococcus aureus [2], in the series on Proteus mirabilis, with Staphylococcus aureus [3] and with Staphylococcus simulans [4] was 0 mm in each case.
Consider `CC1(C)S[C@@H]2[C@H](NC(=O)Cc3ccccc3)C(=O)N2[C@H]1C(=O)O` [PENICILLIN G], for which the Activity result in the series on Erythrocyte was “Non-Toxic”.
In the case of `O/N=C(\Cc1ccc[nH]1)c1cn(-c2ccccc2)nn1`, the zone of inhibition at 30 µg/disc (in [1]; in the series with Serratia marcescens; in the series with Enterobacter cloacae; with Enterococcus faecalis; in the series with Pseudomonas aeruginosa; in the series with Klebsiella pneumoniae) was 0 mm in each case. Moreover, the zone of inhibition at 30 µg/disc with Staphylococcus aureus [2], with Proteus mirabilis, in the series on Staphylococcus aureus [3] and in the series on Staphylococcus simulans [4] was 0 mm in each case.
With `O=C(O)c1cn(C2CC2)c2cc(N3CCNCC3)c(F)cc2c1=O` [CIPROFLOXACIN], the zone of inhibition at 30 µg/disc in the series with Serratia marcescens came to 29 mm; in the series with Pseudomonas aeruginosa, 37 mm; in the series on Klebsiella pneumoniae it was 28 mm; in the series with Proteus mirabilis it was 39 mm. For the same molecule, in the series on Erythrocyte, the Activity entry is “Non-Toxic”.
In the case of `O/N=C(\Cc1ccc[nH]1)c1cn(-c2ccc(Cl)cc2)nn1`, the zone of inhibition at 30 µg/disc (in [1]; in the series on Serratia marcescens; in the series on Enterobacter cloacae; in the series on Enterococcus faecalis; with Pseudomonas aeruginosa; with Klebsiella pneumoniae) was 0 mm each time. For the same molecule, the zone of inhibition at 30 µg/disc in the series with Staphylococcus aureus [2], in the series on Proteus mirabilis, in the series with Staphylococcus aureus [3] and in the series with Staphylococcus simulans [4] was 0 mm in each case.
As to `O/N=C(/CO/N=C(\Cc1c[nH]c2ccccc12)c1cn(-c2ccc(Cl)cc2)nn1)c1cn(-c2ccc(Cl)cc2)nn1`, the zone of inhibition at 30 µg/disc (in series [1]; in the series with Serratia marcescens; in the series with Enterobacter cloacae; with Enterococcus faecalis; in the series with Pseudomonas aeruginosa; in the series with Klebsiella pneumoniae) was 0 mm in each case. Also, the zone of inhibition at 30 µg/disc with Staphylococcus aureus [2], in the series with Proteus mirabilis, in the series on Staphylococcus aureus [3] and in the series with Staphylococcus simulans [4] was 0 mm each time.
